Measured values as given in patent EP1222921B1, “Pharmaceutical compositions of tizoxanide and/or nitazoxanide” (Romark Laboratories, L.C., priority 1997, dated 1998).
Values after ≈ are worked out from the molar mass of the structure shown. “Also recorded” adds a separate entry of the source. Like-named read-outs stand apart in the source and are kept apart here.

Experiments:
[1] = tested on: C. parvum oocysts; test: Intact C. parvum oocyst assay (Example II), immunofluorescence; format: cell-based, Cryptosporidium parvum; settings: 2 mg/ml; for inhibition at 2000 µg/mL: Cryptosporidium parvum, read-out: Percent Inhibition
Procedure: Nitazoxanide was dissolved in sterile dimethylsulfoxide (DMSO) and tested against intact C. parvum oocysts infected cell monolayers at concentrations of 100 µg/ml, 10 µg/ml/l µg/ml and 0.1 µg/ml. A second trail was performed which tested nitazoxanide at the additional concentrations of 20, 2, 0.2 and 0.02 µg/ml. These concentrations were achieved by serial dilutions with complete DMEM medium to yield a final DMSO concentration of 0.5%. The medium control also contacted 0.5% DMSO.
The experiment used a cell culture of MDBKF5D2 Cells grown in 7 mm chambers, and as Cryptosporidium parvum: GCH1 oocysts, 5 X 10^4 per well, and was conducted to compare paromomycin (positive control) against nitazoxanide (experimental drug). Materials included Immune Anti-Cryptosporidium parvum Sporozoite Rabbit Serum (0.1%) and Fluorescein-Conjugated Goat Anti-Rabbit Antibody (1%).
5 x 104 C. parvum oocysts per well were incubated in nitazoxanide (100, 20, 10, 2, 1, 0.2, 0.1 and 0.02 µg/ml) at 37°C (8% CO2) on confluent MDBKF5D2 cell monolayers. The level of infection in each well was determined and analyzed by an immunofluorescence assay at 24 to 48 hours. Percent Inhibition was calculated by subtracting the mean parasite count/10 field in the drug test wells from the mean parasite count/10 fields in the medium control (no drug), dividing by the medium control count, and then multiplying by 100. (Medium control count - Drug test count)/(Medium control count)x 100 [formula]

[2] = tested on: MDBKF5D2 cell monolayers; format: cell-based; settings: cattle, 2 mg/ml
Procedure: The drug was incubated on the monolayers at 37°C and 8% CO2. At 24 hours (trial 1) and 48 hours (trial 2), MTS (Owen's solution) the PMS were added to each well at concentrations of 333 µg/ml and 25 µM respectively. The plate was returned to the incubator in the dark to develop for two hours. At two hours, 100 µl of each supernatant was transferred to a new microtiter plate and read in the ELISA reader at 490nm. Results were recorded and analyzed. Percent toxicity was calculated by subtracting the mean optical density (OD) of the drug supernatants from the mean optical density (OD) of the medium control supernatants (no drug), dividing by the OD of the medium control and multiplying by 100. (OD medium - OD drug)/(OD medium)x 100 [formula]

[3] = tested on: C. parvum oocysts; test: Intact C. parvum oocyst assay (Example III), immunofluorescence; format: cell-based, Cryptosporidium parvum; settings: for Parasite - Mean parasite count/field (12 fields analyzed) / %Inhib - Percent inhibitation of parasite infection: 48 hr.; for %Inhib - Percent inhibitation of parasite infection: listed as New NTZdes
Procedure: Each concentration of nitazoxanide and the media controls contained 0.025% DMSO as a constant. The experiment used a cell culture of MDBKF5D2 Cells grown in 7 mm chambers, and as Cryptosporidium parvum: GCH1 oocysts, 5 X 10^4 per well, and was conducted to compare paromomycin (positive control) against nitazoxanide (experimental drug). […] 5 x 104 C. parvum oocysts per well are incubated in the pre-mentioned concentrations of nitazoxanide at 37°C (8% CO2) on confluent MDBKF5D2 cell monolayers. The level of infection in each well was determined and computer analyzed by an immunofluorescence assay at 48 hours. […] (Medium control count - Drug test count)/(Medium control count)x 100 [formula] Conc. - µg/ml; Parasite - Mean parasite count/field (12 fields analyzed); %Inhib - Percent inhibitation of parasite infection; % Tox- Percent toxicity to cells by the drug.

[4] = tested on: MDBKF5D2 cell monolayers; test: Toxicity testing assay (Example III), MTS/PMS; format: cell-based
Procedure: 200µl of medium containing nitazoxanide solution at the pre-mentioned concentrations and the proper controls were introduced into two wells of a 96 well plate containing confluent MDBKFD2 cell monolayers and two wells without monolayers. […] The plate was returned to the incubator in the dark to develop for 2 hours. At 2 hours, 100 µl of each supernatant was transferred to a new microtiter plate and read in the ELISA reader at 490 nm. Results were recorded and analyzed. […] (OD medium - OD drug x 100)/(OD medium) [formula] […]

[5] = tested on: RH strain of Toxoplasma gondii; test: Toxoplasma gondii growth in MRC5 fibroblast cultures, ELISA; format: cell-based
[6] = tested on: M. intracellular ATCC 13950; test: MIC by standard agar dilution; format: cell-based, Mycobacterium intracellular; settings: Mycobacterium, ATCC13950, 504 h, Middlebrook 7H11 agar, 3 weeks
[7] = tested on: Fasciola hepatica; test: In vitro culture of mature flukes
Procedure: The in vitro efficacy of nitazoxanide and desacetyl-nitazoxanide was tested against Fasciola hepatica. Mature F. hepatica were recovered from the bile ducts of 3 calf livers condemned due to fasciolosis at the Louisiana Veterinary Medical Diagnostic Laboratory at the Hardy's Meat […], Bunkie, LA. Flukes were washed in sterile saline for 1 hour and transferred to sterile saline or RPMI (pH 7.4) for an additional 3 hours. Flukes were then held in sterile RPMI-rabbit serum (50:50 v/v) or sterile RPMI (pH 7.4) overnight at 37°C with 5% CO2. In vitro culture (37°C, 5% CO2) was done according to a modification of the method of Ibarra and Jenkins ([…]. 70:655-661, 1984). […] Only flukes that had normal activity and morphology were used. […] Two control flukes were included in each replicate, […] and one in unmedicated culture media […]. Flukes were examined for the effects of drug treatment as evidenced by death, motility disturbances or morpholgic changes as compared to untreated control flukes, using a backlighted panel and a lighted 3X magnifying lens.

[8] = tested on: MRC5 fibroblasts; test: Toxicity on the cell monolayer in T. gondii cultures; settings: 72 hours
[9] = 48 hr., Conc 0.01 µg/ml, 0.025% DMSO
[10] = 48 hr., Conc 0.1 µg/ml, 0.025% DMSO
[11] = 48 hr., Conc 1 µg/ml, 0.025% DMSO
[12] = 48 hr., Conc 10 µg/ml, 0.025% DMSO

NC[C@@H]1O[C@H](O[C@H]2[C@@H](O)[C@H](O[C@@H]3[C@@H](O)[C@H](N)C[C@H](N)[C@H]3O[C@H]3O[C@H](CO)[C@@H](O)[C@H](O)[C@H]3N)O[C@@H]2CO)[C@H](N)[C@@H](O)[C@@H]1O [Paromomycin, reference compound]
inhibition at 2000 µg/mL ([1]; Trial 1: 24 hrs): 51% | inhibition at 2000 µg/mL ([1]; Trial 2: 48 hrs): 74% | Mean (+ SD) Parasite Count/10 Fields ([1]; Trial 1: 24 hrs): 482(±47.1) | Mean (+ SD) Parasite Count/10 Fields ([1]; Trial 2: 48 hrs): 580(+33.42) | Percent Toxicity ([2]; 24 h): 23.8% | Percent Toxicity ([2]; 48 h): 40.8% | Parasite - Mean parasite count/field (12 fields analyzed) ([3]; Conc 2000 µg/ml, aqueous media): 115.75 | inhibition at 2000 µg/mL ([3]; Cryptosporidium parvum, 48 h, Conc 2000 µg/ml, aqueous media, read-out: %Inhib - Percent inhibitation of parasite infection): 83% | inhibition at 2000 µg/mL ([3]; Cryptosporidium parvum, concentration of 2,000 µg/ml, positive control, Examples II and III, read-out: inhibition (range over the experiments)): 51 to 83% | times less effective (than nitazoxanide) ([3]; same experimental condition, positive control): 2,000 times | %Tox - Percent toxicity to cells by the drug ([4]; cattle, 48 h, 2000 µg/ml): 39.79% | Tox/OD ([4]; cattle, 48 h, 2000 µg/ml): 1.219

O=C(Nc1ncc([N+](=O)[O-])s1)c1ccccc1O [Tizoxanide, desacetyl-nitazoxanide]
Parasite - Mean parasite count/field (12 fields analyzed) ([3]; Conc 0.01 µg/ml, 0.025% DMSO): 749.33 | Parasite - Mean parasite count/field (12 fields analyzed) ([3]; Conc 0.1 µg/ml, 0.025% DMSO): 649.86 | Parasite - Mean parasite count/field (12 fields analyzed) ([3]; Conc 1 µg/ml, 0.025% DMSO): 39.92 | %Inhib - Percent inhibitation of parasite infection ([3]; Conc 1 µg/ml, 0.025% DMSO): 93.65% | Parasite - Mean parasite count/field (12 fields analyzed) ([3]; Conc 10 µg/ml, 0.025% DMSO): 13.75 | %Inhib - Percent inhibitation of parasite infection ([3]; Conc 10 µg/ml, 0.025% DMSO): 97.81% | inhibition at 0.01 µg/mL ([3]; Cryptosporidium parvum, 48 h, Conc 0.01 µg/ml, 0.025% DMSO, read-out: %Inhib - Percent inhibitation of parasite infection): ≤ 0% | inhibition at 0.1 µg/mL ([3]; Cryptosporidium parvum, 48 h, Conc 0.1 µg/ml, 0.025% DMSO, read-out: %Inhib - Percent inhibitation of parasite infection): ≤ 0% | inhibition at 1 µg/mL ([3]; Cryptosporidium parvum, 48 h, Conc 1 µg/ml, 0.025% DMSO, read-out: %Inhib - Percent inhibitation of parasite infection): 94% | inhibition at 10 µg/mL ([3]; Cryptosporidium parvum, 48 h, Conc 10 µg/ml, 0.025% DMSO, read-out: %Inhib - Percent inhibitation of parasite infection): 98% | %Tox - Percent toxicity to cells by the drug [4, 9]: 4.36% | Score (cytotoxicity score) [4, 9]: 0 (0.5% toxicity = 0) | Tox/OD ([4]; 48 hr., Conc 0.01 µg/ml, 0.025% DMSO, OD at 490 nm): 1.721 | %Tox - Percent toxicity to cells by the drug [4, 10]: 16.29% | Score (cytotoxicity score) [4, 10]: 1 (6-25% toxicity = 1) | Tox/OD ([4]; 48 hr., Conc 0.1 µg/ml, 0.025% DMSO, OD at 490 nm): 1.506 | %Tox - Percent toxicity to cells by the drug [4, 11]: 4.97% | Score (cytotoxicity score) [4, 11]: 0 (0.5% toxicity = 0) | Tox/OD ([4]; 48 hr., Conc 1 µg/ml, 0.025% DMSO, OD at 490 nm): 1.710 | %Tox - Percent toxicity to cells by the drug [4, 12]: 81.27% | Score (cytotoxicity score) [4, 12]: 4 (76-100% toxicity =- 4) | Tox/OD ([4]; 48 hr., Conc 10 µg/ml, 0.025% DMSO, OD at 490 nm): .337 | concentration with significant effect (inhibition) ([5]; 72 hours): ≥ 0.6 mg/L | IC50 ([5]; Toxoplasma gondii, MRC5, 72 hours, estimated from regression analysis, read-out: 50% inhibitory concentration): 1.2 µg/mL (≈ 4.52 µM) | concentrations at which a marked inhibition of Toxoplasma growth could be observed ([5]; alteration of the parasitophorous vacuole, no marked alteration of the parasite itself): approximately 1.2 mg/L | MIC [6]: 4 µg/mL (≈ 15.1 µM) | effects on flukes (death, motility disturbances) ([7]; 1 µg treatment, listed as D-NTZ): Some slowing of activity was noted in the 1 µg group at 42-74 hours; also recorded: only 3 active and one moribund fluke remained alive at 91 hours; also recorded: at 115 hours only one sluggish fluke remained | effects on flukes (death, motility disturbances) ([7]; 3 µg treatment, listed as D-NTZ): Reduced activity in some individuals was seen by 24 hours in the 5 µg and 3 µg groups with a somewhat slower onset at 3 µg; also recorded: all were dead in the 3 and 5 µg treatment wells by 50 hours except one sluggish fluke in each group | effects on flukes (death, motility disturbances) ([7]; 5 µg treatment, listed as D-NTZ): Reduced activity in some individuals was seen by 24 hours; also recorded: all were dead in the 3 and 5 µg treatment wells by 50 hours except one sluggish fluke in each group | effects on flukes (death, motility disturbances) ([7]; 10 µg treatment, listed as D-NTZ): reduced activity was noted at 1, 3 and 4 hours; also recorded: all were moribund or dead by 7 hours | effects on flukes (death, motility disturbances) ([7]; 25 µg treatment, listed as D-NTZ): Four of 7 flukes in the 25 µg treatment were moribund, two were active, and one was sluggish within the first hour; also recorded: all were dead except two sluggish flukes by three hours; also recorded: only one sluggish fluke remained alive after four hours | effects on flukes (death, motility disturbances) ([7]; 50 µg treatment): moribund or dead within one hour | effects on flukes (death, motility disturbances) ([7]; 100 µg treatment): moribund or dead within one hour | time to rapid fluke death ([7]; in vitro medication rate 10µg): 6 to 7 h | time to rapid fluke death ([7]; in vitro medication rate 25 µg): ≤ 4 h | time to rapid fluke death ([7]; in vitro medication rates of >50 µg): ≤ 1 h | concentrations with marked toxicity on the cell monolayer [8]: ≥ 2500 ng/mL
